Experimental data as given in patent US4552872A, “Penetrating topical pharmaceutical compositions containing corticosteroids” (priority 1984, dated 1985).

Key:
[1] = Percutaneous penetration study, Franz diffusion apparatus, human skin (*); format: in vitro ADME; conditions: Example 8; for reduction of penetration on addition of the proscribed compound, in words: compared with octanoic acid (reduces penetration by 50%)
Experimental: The following Penetration Studies were carried out in the following manner. […] A normal saline solution is added to the lower diffusion cell, abutting the subcutaneous side of the skin. The test composition (comprising a solution of active or actives added to the carrier at the indicated formulation in a conventional manner by thoroughly mixing) is added to the diffusion cell abutting the epidermal side of the skin at the levels indicated.
This cell assembly is kept at a constant temperature of about 31° C. At appropriate or desired intervals (these are the time designations given in the following examples) each diffusion cell assembly is opened and the diffusate from the cell abutting the subcutaneous side of the skin is withdrawn. Drug actives in a diffusate is measured using standard analytical techniques. Each trial is run on a separate sample of skin.
All ratios represented by A/B, or A/B/C, and all percentages, are by weight. The compounds described as C12-18 OH are the straight chain, saturated, normal alcohols. EtOH is ethanol. The term mcg=microgram.

[2] = test system: dermatitis; assay: Topical treatment of dermatitis in a human, composition of Example 32; format: in vivo; conditions: 5 mg/cm^2 of skin three times daily for five days; noted after 48 hours
Experimental: The above composition is applied at the afflicted situs of a human afflicted with dermatitis at a rate of 5 mg of composition/cm^2 of skin three times daily for a period of five days.

[3] = compared with hydrocortisone; cited from earlier work

| SMILES | reduction of penetration on addition of the proscribed compound, in words [1] | reduction of inflammation [2] | also measured |
| --- | --- | --- | --- |
| CCCCCCCCCCCCCCCCCCO [stearyl alcohol] | Substantially similar results | – | – |
| CC1(C)O[C@@H]2C[C@H]3[C@@H]4CCC5=CC(=O)C=C[C@]5(C)[C@@]4(F)[C@@H](O)C[C@]3(C)[C@]2(C(=O)CO)O1 [triamcinolone, Triamcinolone acetonide] | – | Substantially similar results | – |
| CCCCCCCC(=O)O [octanoic acid] | – | – | reduction of penetration on addition of the proscribed compound ([1]; 1% Triamcinolone in Propylene Glycol + 2% C14 OH, human skin, 0-72 hrs.): 50% |
| CCCCCCCCCC(=O)O [decanoic acid] | Substantially similar results | – | – |
| CCCCC(=O)O[C@]1(C(=O)CO)[C@@H](C)C[C@H]2[C@@H]3CCC4=CC(=O)C=C[C@]4(C)[C@@]3(F)[C@@H](O)C[C@@]21C [betamethasone valerate] | – | Substantially similar results | – |
| CCCCCCCCCCCCCCCCO [cetyl alcohol] | Substantially similar results | – | – |
| C[C@]12C=CC(=O)C=C1CC[C@@H]1[C@@H]2[C@@H](O)C[C@@]2(C)[C@H]1CC[C@]2(O)C(=O)CO [prednisolone] | – | – | change of mineralocorticoid effects by introduction of a double bond at the 1,2 position into hydrocortisone [3]: reducing mineralo corticoid effects |
| CC1(C)O[C@@H]2C[C@H]3[C@@H]4C[C@H](F)C5=CC(=O)C=C[C@]5(C)[C@@]4(F)[C@@H](O)C[C@]3(C)[C@]2(C(=O)CO)O1 [fluocinolone, acetonide, Fluocinolone acetonide] | – | Substantially similar results | – |
| COc1c(C(=O)OCC(=O)[C@@]23OC(C)(C)O[C@@H]2C[C@H]2[C@@H]4CCC5=CC(=O)C=C[C@]5(C)[C@@]4(F)[C@@H](O)C[C@@]23C)cc2ccccc2c1Cc1c(OC)c(C(=O)OCC(=O)[C@@]23OC(C)(C)O[C@@H]2C[C@H]2[C@@H]4CCC5=CC(=O)C=C[C@]5(C)[C@@]4(F)[C@@H](O)C[C@@]23C)cc2ccccc12 [flupamesone] | – | Substantially similar results | – |
